Laboratory results reported in patent US20230416329A1, “A PEPTIDE WITH DISULFIDE BONDS AND INHIBITORY ACTIVITY AGAINST SERINE PROTEASES, DERIVED HYBRID PEPTIDES THEREOF, AND USES THEREOF” (INSTITUTE OF MATERIA MEDICA , CHINESE ACADEMY OF MEDICAL …, priority 2020, published 2023).
Bridge positions count the residues as written; N and C are the ends. Ends that are not written are not given here.

Columns and labels:
[1] = molecular target: T1, interaction of PCSK9-LDLR (Homo sapiens, UniProt Q8NBP7); experiment: PCSK9-LDLR in vitro binding assay (inhibitory rate); conditions: in vitro
T1 construct: purchased MBL Company, Beijing, China CY-8150
In short: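 Polypeptide (final 50 μM) pre-incubated 20 min at room temperature with PCSK9 (final 75 ng/mL), then run in a PCSK9-LDLR binding kit read at OD450/540 nm. Inhibition rate calculated relative to a solvent control (water or DMSO) lacking polypeptide.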

[2] = tested on: P407-induced hyperlipidemia mice; experiment: Subcutaneous injection of PCSK9 inhibitory peptide, serum total cholesterol in P407-induced hyperlipidemia mice; assay type: in vivo, mouse; conditions: for serum total cholesterol (TC) level after subcutaneous injection (in words): 2 μmol/kg single s.c., P407-induced hyperlipidemia mice
In short: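 ICR mice, fasted overnight, received intraperitoneal P407 at 500 mg/kg. After 24 h they received subcutaneous peptide at 2 μmol/kg in 20% PEG400; vehicle-treated and normal groups served as controls. Serum total cholesterol was measured at various times after dosing.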

[3] = tested on: P407 induced hyperlipidemia mice; experiment: Duodenal injection of PCSK9 inhibitory peptide, serum total cholesterol in P407 induced hyperlipidemia mice; assay type: in vivo, mouse
Experimental: The experimental polypeptide sample was prepared using PEG400 with a final concentration of 20 μmol/kg and the final concentration of PEG400 is 50% (w/v). The control group was saline containing PEG400 (50%).
Normal ICR mice were fasted overnight with water ad libitum. The next day, all of the mice were intraperitoneally injected with poloxamer 407 (P407, 500 mg/kg) to establish a model of lipid metabolism disorder. Six mice were intraperitoneally injected with saline as a normal control (Nor). Normal feeding resumed after 2 hours. The model animals were randomly divided into model group (Con) and polypeptide groups according to body weight, and the blood was collected from tail tip (0 min). Then, the animals were anesthetized with ether for duodenal exposure surgery. At the same time, a sample or saline containing PEG400 was injected through the duodenum. Finally, the wound was sutured. The blood was collected from tail tip at 15, 30, 60, and 90 minutes after administration to determine the serum total cholesterol level.

DPP-IV = DPP-IV (Homo sapiens, UniProt P27487); experiment: Tolerance of GLP-1 and its analogues to DPP-IV (RP-HPLC remaining peak area); assay type: in vitro ADME; conditions: peptide 25 μM, DPP-IV 0.5 ng/μL, 37° C.
DPP-IV, sequence (P27487 whole entry, species assumed): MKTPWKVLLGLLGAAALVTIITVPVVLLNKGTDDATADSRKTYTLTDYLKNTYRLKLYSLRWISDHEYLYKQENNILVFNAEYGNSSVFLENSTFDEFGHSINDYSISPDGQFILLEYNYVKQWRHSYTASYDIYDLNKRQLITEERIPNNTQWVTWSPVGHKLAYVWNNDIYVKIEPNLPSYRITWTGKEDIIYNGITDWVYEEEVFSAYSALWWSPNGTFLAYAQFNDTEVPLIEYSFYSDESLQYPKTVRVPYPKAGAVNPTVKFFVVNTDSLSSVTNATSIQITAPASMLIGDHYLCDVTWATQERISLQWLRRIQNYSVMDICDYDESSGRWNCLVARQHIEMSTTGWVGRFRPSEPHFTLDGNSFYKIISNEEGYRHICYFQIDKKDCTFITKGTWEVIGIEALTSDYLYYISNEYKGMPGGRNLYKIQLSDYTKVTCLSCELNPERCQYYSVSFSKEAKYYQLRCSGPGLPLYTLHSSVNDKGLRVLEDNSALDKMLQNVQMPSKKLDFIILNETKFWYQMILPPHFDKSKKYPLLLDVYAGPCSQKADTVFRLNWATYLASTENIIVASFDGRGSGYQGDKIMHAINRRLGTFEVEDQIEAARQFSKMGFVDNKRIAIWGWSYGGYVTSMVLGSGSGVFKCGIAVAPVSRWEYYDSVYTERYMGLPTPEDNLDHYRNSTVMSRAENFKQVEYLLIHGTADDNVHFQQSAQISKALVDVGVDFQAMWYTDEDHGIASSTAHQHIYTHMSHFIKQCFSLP
Experimental: Mix by centrifugation at 8000 rpm for 30 seconds.
(2) Arrange a certain volume of 0.005 μg/μL DPP-IV solution in another sterile EP.

elastase = elastase (Sus scrofa, UniProt P00772); experiment: in vitro; conditions: isolated enzyme elastase
elastase, sequence (P00772 27-266): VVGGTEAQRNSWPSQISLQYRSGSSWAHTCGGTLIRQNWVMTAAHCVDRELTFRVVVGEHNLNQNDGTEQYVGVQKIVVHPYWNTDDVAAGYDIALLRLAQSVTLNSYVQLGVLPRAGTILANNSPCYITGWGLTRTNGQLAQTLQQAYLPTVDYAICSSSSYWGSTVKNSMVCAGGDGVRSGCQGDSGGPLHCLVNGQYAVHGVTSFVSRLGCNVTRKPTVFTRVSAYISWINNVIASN
In short: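 Peptides and elastase (0.5 μg/μL solution) each pre-warmed 5 min at 37° C, then mixed; aliquots taken at 1.5 to 60.0 min and quenched with 10% TFA. Remaining intact peptide quantified as RP-HPLC peak area.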

normal ICR mice [4] = experiment: In vivo hypoglycemic activity of GLP-1 analogues, subcutaneous administration, oral glucose loading; design: species or system mouse; conditions: subcutaneous 1 μmol/kg, mean
Experimental: FIG. 21. In vivo hypoglycemic activities of GLP-1 analogues by subcutaneous administration. Normal ICR mice were subcutaneously injected with GLP-1 and its analogues or corresponding volumes of saline (1.0 μmol/kg, n=10). After 30 min, glucose solution (2 g/kg) was administered by gavage, and blood was collected from the tail tip at 30, 60, and 120 min after glucose administration. Blood glucose was measured using glucose oxidase method, and blood glucose values and area under the blood glucose curve (AUC) were calculated at each timepoint.
The day before the experiment, all of the animals were fasted for 15-16 hours with water ad libitum. On the day of the experiment, the animals were randomly divided according to body weight (n=10). Firstly, the blood was collected from the tail tip at 0 hour, and then the animals were administered subcutaneously with GLP-1 analog (SEQ ID NOs: 194-201, 1 μmol/kg) or saline. After 30 minutes, the animals were administered by gavage with glucose solution (2 g/kg), and the blood was collected from the tail tip at 30, 60, and 120 minutes later. Blood glucose was measured using glucose oxidase method. The blood glucose and area under the blood glucose-time curve (AUC) were calculated.

normal ICR mice [5] = experiment: In vivo hypoglycemic activity of GLP-1 analogues, duodenal administration, oral glucose loading; design: species or system mouse
Experimental: FIG. 22. In vivo hypoglycemic activities of GLP-1 analogues by duodenal administration. Normal ICR mice were anesthetized with inhalation of ether, and the duodenum was surgically removed and injected with GLP-1 and its analogues or a corresponding volume of saline ([…], n=9-11), and finally the incision was sewed. After 15 min, glucose solution (2 g/kg) was administered by gavage, and blood was collected from the tail tips at 15, 30, and 60 min after glucose administration. Blood glucose was measured using glucose oxidase method, and blood glucose values and area under the blood glucose curve (AUC) were calculated at each timepoint.
Drug delivery technology can use enteric coating technology to achieve oral administration targeting the small intestine. In order to test the feasibility of direct small intestinal administration of GLP-1, the present invention designs duodenal administration. The experimental process is as follows: The day before the experiment, all of the animals were fasted for 15-16 hours with water ad libitum. On the day of the experiment, the animals were randomly divided according to body weight (n=9-11 or 14-15 for combined administration). Firstly, the blood was collected from the tail tip at 0 hours, and then the animals were anesthetized by inhaling ether. A small incision was made near the underside of the stomach using surgical scissors, and the duodenum was carefully removed and administered with GLP-1 analogs (SEQ ID NOs: 194-209, 10 μmol/kg) or saline. Finally, the wound was sutured. After 15 minutes, the glucose solution (2 g/kg) was administered by gavage, and the blood were collected from the tail tips at 15, 30, and 60 minutes after glucose administration. Blood glucose was measured using the glucose oxidase method. The blood glucose at each moment and area under the blood glucose-time curve (AUC) were calculated.
AUC mg×h/dL)=(BG0+BG15)×15/60+(BG15+BG30)×15/60+(BG30+BG60)×30/60. BG0, BG15, BG30, and BG60 represent blood glucose levels at 0, 15, 30, and 60 minutes after glucose loading, respectively.

[6] = Stability of GLP-1 and its analogues in human serum; conditions: 25% (v/v) human serum
[7] = pH 8, Remaining peak area (%)/elastase
[8] = duodenal 10 μmol/kg, normal ICR mice, after oral glucose loading

For “Trp-Glu-Glu-Tyr-Leu-Asp-Tyr-Val-Gly-Ile-Cys-Thr-Ala-Ser-Ile-Pro-Pro-Ile-Cys-Gln-Gly-Thr-Val-Phe-Thr-Ser (WEEYLDYVGICTASIPPICQGTVFTS; disulfide 11-19 (inferred)) [PCSK9_6EC]”, the “inhibitory activity on the interaction between PCSK9 and LDLR (in words)” value [1] was “good inhibitory activity on the interaction between PCSK9 and LDLR”, the “inhibitory activity on the interaction between PCSK9 and LDLR (in words)” value ([1]; listed as SEQ ID NO: 231) was “good inhibitory effects in vitro” and the “serum total cholesterol (TC) level after subcutaneous injection (in words)” value [2] was “reduced serum TC level”. The “serum total cholesterol (TC) level after subcutaneous injection (in words)” value ([2]; listed as SEQ ID NO: 231) was “excellent lowering lipid (total cholesterol) activities in vivo”, the “TC 15 min” value ([2]; serum, subcutaneous 2 μmol/kg, 15 min after administration, mean ± sd) was 2438 ± 610 µg/mL and the “TC 30 min” value ([2]; serum, subcutaneous 2 μmol/kg, 30 min after administration, mean ± sd) was 2369 ± 574 µg/mL. For the same molecule, the “TC 60 min” value ([2]; serum, subcutaneous 2 μmol/kg, 60 min after administration, mean ± sd) was 2345 ± 638 µg/mL, the “TC 90 min” value ([2]; serum, subcutaneous 2 μmol/kg, 90 min after administration, mean ± sd) was 2274 ± 586 µg/mL and the “hypolipidemic activity after duodenal administration (in words)” value ([3]; 20 μmol/kg, P407 induced hyperlipidemia mice) was “did not show hypolipidemic activity”. The “TC 15 min” value ([3]; serum, duodenal injection 20 μmol/kg, 15 min, mean ± sd) was 3166 ± 343 µg/mL, the “TC 30 min” value ([3]; serum, duodenal injection 20 μmol/kg, 30 min, mean ± sd) was 2931 ± 673 µg/mL and the “TC 60 min” value ([3]; serum, duodenal injection 20 μmol/kg, 60 min, mean ± sd) was 3239 ± 515 µg/mL. The “TC 90 min” value ([3]; serum, duodenal injection 20 μmol/kg, 90 min, mean ± sd) was 3177 ± 443 µg/mL.
In the case of `CC[C@H](C)[C@H](NC(=O)[C@H](Cc1ccccc1)NC(=O)[C@H](CCC(=O)O)NC(=O)[C@H](CCCCN)NC(=O)[C@H](C)NC(=O)[C@H](C)NC(=O)[C@H](CCC(N)=O)NC(=O)CNC(=O)[C@H](CCC(=O)O)NC(=O)[C@H](CC(C)C)NC(=O)[C@H](Cc1ccc(O)cc1)NC(=O)[C@H](CO)NC(=O)[C@H](CO)NC(=O)[C@@H](NC(=O)[C@H](CC(=O)O)NC(=O)[C@H](CO)NC(=O)[C@@H](NC(=O)[C@H](Cc1ccccc1)NC(=O)[C@@H](NC(=O)CNC(=O)[C@H](CCC(=O)O)NC(=O)[C@H](C)NC(=O)[C@H](Cc1c[nH]cn1)NC(=O)CNC(=O)CNC(=O)[C@@H](NC(=O)[C@@H]1CCCN1C(=O)[C@@H](NC(=O)CNC(=O)CNC(=O)[C@H](CCC(N)=O)NC(=O)[C@@H]1CSSC[C@H](NC(=O)[C@@H](N)CC(C)C)C(=O)N[C@@H]([C@@H](C)O)C(=O)N[C@@H](C)C(=O)N[C@@H](CO)C(=O)N[C@@H]([C@@H](C)CC)C(=O)N2CCC[C@H]2C(=O)N2CCC[C@H]2C(=O)N[C@@H]([C@@H](C)CC)C(=O)N1)[C@@H](C)CC)[C@@H](C)CC)[C@@H](C)O)[C@@H](C)O)C(C)C)C(=O)N[C@@H](C)C(=O)N[C@@H](Cc1c[nH]c2ccccc12)C(=O)N[C@@H](CC(C)C)C(=O)N[C@H](C(=O)N[C@@H](CCCCN)C(=O)NCC(=O)N[C@@H](CCCNC(=N)N)C(=O)NCC(=O)NCC(=O)N[C@@H](CCCCN)C(=O)O)C(C)C` [EC12-D-GLP-1], the “Remaining peak area (%)/DPP-IV” value (DPP-IV; 0.0 h) is reported as 100.0 ± 0.0%, the remaining at 0.5 h, 25 μM (DPP-IV; isolated DPP-IV enzyme in buffer, pH 8, 0.5 h) is reported as 79.1 ± 2.6% and the remaining at 2 h, 25 μM (DPP-IV; isolated DPP-IV enzyme in buffer, pH 8, 2.0 h) is reported as 78.5 ± 1.1%. It also gave a remaining at 4 h, 25 μM (DPP-IV; isolated DPP-IV enzyme in buffer, pH 8, 4.0 h) of 81.7 ± 0.8%, a remaining at 8 h, 25 μM (DPP-IV; isolated DPP-IV enzyme in buffer, pH 8, 8.0 h) of 79.2 ± 2.6% and a remaining at 12 h, 25 μM (DPP-IV; isolated DPP-IV enzyme in buffer, pH 8, 12.0 h) of 80.7 ± 0.3%. The “Remaining peak area (%)/elastase” value (elastase; 1 h, 60 μM, pH 8) was 17.8 ± 2.0%, the remaining at 0.025 h, 60 μM (elastase; [7]) was 90.2 ± 3% and the remaining at 0.05 h, 60 μM (elastase; [7]) was 86 ± 1.7%. The remaining at 0.075 h, 60 μM (elastase; [7]) was 79.7 ± 3.5%, the remaining at 0.1 h, 60 μM (elastase; [7]) was 79.1 ± 2.2% and the remaining at 0.15 h, 60 μM (elastase; [7]) was 74.5 ± 2.2%. For the same molecule, the remaining at 0.25 h, 60 μM (elastase; [7]) was 63.3 ± 0.7%, the remaining at 0.5 h, 60 μM (elastase; [7]) was 49.4 ± 0.9% and the remaining at 1 h, 60 μM (elastase; [7]) was ~20%. The “AUC (blood glucose-time curve)” value (normal ICR mice [4]; 0-120 min) was 159.1 mg·h/dL, the “Blood glucose 0 min” value (normal ICR mice [4]; 0 min, oral glucose loading 2 g/kg) was 63.3 mg/dL and the “Blood glucose 30 min” value (normal ICR mice [4]; 30 min after oral glucose loading) was 103.3 mg/dL. The “Blood glucose 60 min” value (normal ICR mice [4]; 60 min after oral glucose loading) was 77.2 mg/dL, the “Blood glucose 120 min” value (normal ICR mice [4]; 120 min after oral glucose loading) was 67.6 mg/dL and the “reduction of blood glucose at 15 minutes compared with Nor” value (normal ICR mice [5]; [8]) was 11.9%. For the same molecule, the “reduction of blood glucose at 30 minutes compared with Nor” value (normal ICR mice [5]; [8]) was 19.9%, the “reduction of blood glucose at 60 minutes compared with Nor” value (normal ICR mice [5]; [8]) was 17.4% and the “AUC (blood glucose-time curve)” value (normal ICR mice [5]; duodenal injection 10 μmol/kg, 0-60 min, mean) was 123.6 mg·h/dL. For the same molecule, the “Blood glucose 0 min” value (normal ICR mice [5]; duodenal injection 10 μmol/kg, 0 min, mean) was 75.6 mg/dL, the “Blood glucose 15 min” value (normal ICR mice [5]; duodenal injection 10 μmol/kg, 15 min after oral glucose loading, mean) was 120.8 mg/dL and the “Blood glucose 30 min” value (normal ICR mice [5]; duodenal injection 10 μmol/kg, 30 min, mean) was 129.8 mg/dL. The “Blood glucose 60 min” value (normal ICR mice [5]; duodenal injection 10 μmol/kg, 60 min, mean) was 141.1 mg/dL, the “Remaining peak area (%)/human serum” value ([6]; 0.0 h, peptide 0.03 mM, 37° C.) was 100.0 ± 0.0% and the remaining at 0.5 h, 0.03 mM ([6]; human, pH 7) was 94.6 ± 5.3%. For the same molecule, the remaining at 2 h, 0.03 mM ([6]; human, pH 7) was 69.3 ± 4%, the remaining at 4 h, 0.03 mM ([6]; human, pH 7) was 43.4 ± 1.7% and the remaining at 8 h, 0.03 mM ([6]; human, pH 7) was 5.7 ± 0.1%. The remaining at 12 h, 0.03 mM ([6]; human, pH 7) was 2.2 ± 0.1%.
